Numbered stars: 1 amine (or outer) side, 2 acyl side, 3 side chain; on linkers, the order of the positions; unused ones are H or OH. Bridge positions count the residues as written; N and C are the ends. Square brackets hold non-standard residues; d marks the D form. Peptide text beside a SMILES is read from it. * marks the point of attachment. ξ: configuration not given here. Ileψ(thiazoline)Cys = CC[C@H](C)[C@H](N)C1=N[C@H](C(=O)*)CS1; X1 = N=C1NCCC([C@H](N[*:1])C(=O)[*:2])N1; ΔAla(Z-3-ureido) = NC(=O)N/C=C(\N)C(=O)O; dOrn = NCCC[C@@H](N)C(=O)O; ξβ3hOrn = NCCCC(N)CC(=O)*; Dap = NC[C@H](N)C(=O)O
Tested on: Hepatotoxicity
Test: Literature-mined public compounds from Greene et al multi-species hepatotoxicity modelling dataset

SMILES	Hepatotoxicity
Clc1ccc2c(c1)C(N1CCNCC1)=Nc1ccccc1O2 [AMOXAPINE]	WE: Weak evidence (<10 case reports) of human hepatotoxicity
CC1(C)S[C@@H]2[C@H](NC(=O)[C@H](N)c3ccc(O)cc3)C(=O)N2[C@H]1C(=O)O [AMOXICILLIN]	WE: Weak evidence (<10 case reports) of human hepatotoxicity
C[C@@H]1[C@H](O)[C@@H](C)/C=C/C=C/C=C/C=C/C=C/C=C/C=C/[C@H](O[C@@H]2O[C@H](C)[C@@H](O)[C@H](N)[C@@H]2O)C[C@@H]2O[C@](O)(C[C@@H](O)C[C@@H](O)[C@H](O)CC[C@@H](O)C[C@@H](O)CC(=O)O[C@H]1C)C[C@H](O)[C@H]2C(=O)O [AMPHOTERICIN B]	WE: Weak evidence (<10 case reports) of human hepatotoxicity
COc1cc(NS(C)(=O)=O)ccc1Nc1c2ccccc2nc2ccccc12.Cl [AMSACRINE HYDROCHLORIDE]	HH: Evidence of human hepatotoxicity
CCOC(=O)C1(c2ccccc2)CCN(CCc2ccc(N)cc2)CC1.Cl [ANILERIDINE HYDROCHLORIDE]	NE: No evidence of hepatotoxicity in any species
N=C(N)NCCC[C@H](N)C(=O)O [ARGININE]	NE: No evidence of hepatotoxicity in any species
O=[As][As+](=O)[O-] (stereo not given) [ARSENIC TRIOXIDE]	HH: Evidence of human hepatotoxicity
O=C1O[C@H]([C@@H](O)CO)C(O)=C1O [ASCORBIC ACID]	NE: No evidence of hepatotoxicity in any species
COc1ccc(CCN2CCC(Nc3nc4ccccc4n3Cc3ccc(F)cc3)CC2)cc1 [ASTEMIZOLE]	NE: No evidence of hepatotoxicity in any species
CC(C)NCC(O)COc1ccc(CC(N)=O)cc1 (stereo not given) [ATENOLOL]	NE: No evidence of hepatotoxicity in any species
CNCC[C@@H](Oc1ccccc1C)c1ccccc1 [ATOMOXETINE]	HH: Evidence of human hepatotoxicity
C=C1[C@@H]2CCC3[C@@](CC[C@@H]4[C@H](C(=O)O)C[C@@H](O[C@@H]5O[C@H](CO)[C@@H](OS(=O)(=O)[O-])[C@H](OS(=O)(=O)[O-])[C@H]5OC(=O)CC(C)C)C[C@@]34C)(C2)[C@@H]1O.[K+].[K+] (stereo not given in full) [ATRACTYLOSIDE]	HH: Evidence of human hepatotoxicity
Nc1ncn([C@@H]2O[C@H](CO)[C@@H](O)[C@H]2O)c(=O)n1 [AZACITIDINE]	HH: Evidence of human hepatotoxicity
Cl.Cl.O=C(CCN1CCN2CCCC2C1)N1c2ccccc2Sc2ccc(Cl)cc21 (stereo not given) [AZACLORZINE HYDROCHLORIDE]	HH: Evidence of human hepatotoxicity
[N-]=[N+]=CC(=O)OC[C@H](N)C(=O)O [AZASERINE]	AH: Evidence for animal hepatotoxicity but not tested in humans
CN1CCC(=C2c3ccccc3CCc3cccnc32)CC1.O=C(O)/C=C\C(=O)O.O=C(O)/C=C\C(=O)O [AZATADINE MALEATE]	HH: Evidence of human hepatotoxicity
Cn1cnc([N+](=O)[O-])c1Sc1ncnc2nc[nH]c12 [AZATHIOPRINE]	HH: Evidence of human hepatotoxicity
CC[C@H]1OC(=O)[C@H](C)[C@@H](O[C@H]2C[C@@](C)(OC)[C@@H](O)[C@H](C)O2)[C@H](C)[C@@H](O[C@@H]2O[C@H](C)C[C@H](N(C)C)[C@H]2O)[C@](C)(O)C[C@@H](C)CN(C)[C@H](C)[C@@H](O)[C@]1(C)O [AZITHROMYCIN]	WE: Weak evidence (<10 case reports) of human hepatotoxicity
CC1(C)S[C@@H]2[C@H](NC(=O)[C@H](NC(=O)N3CCNC3=O)c3ccccc3)C(=O)N2[C@H]1C(=O)[O-].[Na+] [AZLOCILLIN SODIUM]	NE: No evidence of hepatotoxicity in any species
C[C@H]1[C@H](NC(=O)/C(=N\OC(C)(C)C(=O)O)c2csc(N)n2)C(=O)N1S(=O)(=O)O [AZTREONAM]	NE: No evidence of hepatotoxicity in any species
CC[C@H](C)[C@H](N)C1=N[C@H](C(=O)N[C@@H](CC(C)C)C(=O)N[C@H](CCC(=O)O)C(=O)N[C@H](C(=O)N[C@H]2CCCCNC(=O)[C@H](CC(N)=O)NC(=O)[C@@H](CC(=O)O)NC(=O)[C@H](Cc3cnc[nH]3)NC(=O)[C@@H](Cc3ccccc3)NC(=O)[C@H]([C@@H](C)CC)NC(=O)[C@@H](CCCN)NC2=O)[C@@H](C)CC)CS1 [BACITRACIN] ({Ileψ(thiazoline)Cys}-L[dE]IK[dOrn]I[dF]H[dD]N; lactam 4-C)	NE: No evidence of hepatotoxicity in any species
CN(C)C(=O)Oc1cc(OC(=O)N(C)C)cc(C(O)CNC(C)(C)C)c1 (stereo not given) [BAMBUTEROL]	NE: No evidence of hepatotoxicity in any species
CCC(=O)OCC(=O)[C@@]1(OC(=O)CC)[C@@H](C)C[C@H]2[C@@H]3CCC4=CC(=O)C=C[C@]4(C)[C@@]3(Cl)[C@@H](O)C[C@@]21C [BECLOMETHASONE DIPROPIONATE]	NE: No evidence of hepatotoxicity in any species
CCOC(=O)[C@H](CCc1ccccc1)N[C@H]1CCc2ccccc2N(CC(=O)O)C1=O [BENAZEPRIL]	WE: Weak evidence (<10 case reports) of human hepatotoxicity
CC(C(=O)O)c1ccc2oc(-c3ccc(Cl)cc3)nc2c1 (stereo not given) [BENOXAPROFEN]	HH: Evidence of human hepatotoxicity
CCc1oc2ccccc2c1C(=O)c1cc(Br)c(O)c(Br)c1 [BENZBROMARONE]	HH: Evidence of human hepatotoxicity
CC(C)COCC(CN(Cc1ccccc1)c1ccccc1)N1CCCC1.Cl.O (stereo not given) [BEPRIDIL HYDROCHLORIDE]	HH: Evidence of human hepatotoxicity
CNCCc1ccccn1.Cl.Cl [BETAHISTINE HYDROCHLORIDE]	HH: Evidence of human hepatotoxicity

SMILES	Hepatotoxicity
C[N+](C)(C)CC(=O)O.[Cl-] [BETAINE HYDROCHLORIDE]	NE: No evidence of hepatotoxicity in any species
C[C@H]1C[C@H]2[C@@H]3CCC4=CC(=O)C=C[C@]4(C)[C@@]3(F)[C@@H](O)C[C@]2(C)[C@@]1(O)C(=O)CO [BETAMETHASONE]	NE: No evidence of hepatotoxicity in any species
CC(C)(Oc1ccc(CCNC(=O)c2ccc(Cl)cc2)cc1)C(=O)O [BEZAFIBRATE]	NE: No evidence of hepatotoxicity in any species
CC(O)(CS(=O)(=O)c1ccc(F)cc1)C(=O)Nc1ccc(C#N)c(C(F)(F)F)c1 (stereo not given) [BICALUTAMIDE]	HH: Evidence of human hepatotoxicity
O=C(O)CCCC[C@@H]1SC[C@@H]2NC(=O)N[C@@H]21 [BIOTIN]	NE: No evidence of hepatotoxicity in any species
CCCC[C@@H](CC)COC(=O)c1ccccc1C(=O)OC[C@@H](CC)CCCC [BIS(2-ETHYLHEXYL)PHTHALATE]	AH: Evidence for animal hepatotoxicity but not tested in humans
Oc1c(Cl)cc(Cl)cc1Sc1cc(Cl)cc(Cl)c1O [BITHIONOL]	HH: Evidence of human hepatotoxicity
COc1ccccc1Oc1c(NS(=O)(=O)c2ccc(C(C)(C)C)cc2)nc(-c2ncccn2)nc1OCCO [BOSENTAN]	HH: Evidence of human hepatotoxicity
Nc1c(CC(=O)O)cccc1C(=O)c1ccc(Br)cc1 [BROMFENAC]	HH: Evidence of human hepatotoxicity
Brc1ccccc1 [BROMOBENZENE]	HH: Evidence of human hepatotoxicity
NCCBr [BROMOETHANAMINE]	AH: Evidence for animal hepatotoxicity but not tested in humans
CN(C)CCC(c1ccc(Br)cc1)c1ccccn1.O=C(O)/C=C\C(=O)O (stereo not given) [BROMPHENIRAMINE MALEATE]	NE: No evidence of hepatotoxicity in any species
CCCCNc1cc(C(=O)O)cc(S(N)(=O)=O)c1Oc1ccccc1 [BUMETANIDE]	HH: Evidence of human hepatotoxicity
CCCCN1CCCCC1C(=O)Nc1c(C)cccc1C (stereo not given) [BUPIVACAINE]	NE: No evidence of hepatotoxicity in any species
CC(NC(C)(C)C)C(=O)c1cccc(Cl)c1.Cl (stereo not given) [BUPROPION HYDROCHLORIDE]	WE: Weak evidence (<10 case reports) of human hepatotoxicity
O=C1CC2(CCCC2)CC(=O)N1CCCCN1CCN(c2ncccn2)CC1 [BUSPIRONE]	NE: No evidence of hepatotoxicity in any species
CS(=O)(=O)OCCCCOS(C)(=O)=O [BUSULFAN]	HH: Evidence of human hepatotoxicity
Clc1ccc(CCC(Cn2ccnc2)Sc2c(Cl)cccc2Cl)cc1.O=[N+]([O-])O (stereo not given) [BUTOCONAZOLE NITRATE]	NE: No evidence of hepatotoxicity in any species
Cc1cc(C(C)(C)C)c(O)c(C(C)(C)C)c1 [BUTYLATED HYDROXYTOLUENE]	AH: Evidence for animal hepatotoxicity but not tested in humans
Cn1c(=O)c2c(ncn2C)n(C)c1=O [CAFFEINE]	NE: No evidence of hepatotoxicity in any species
C=C1CC[C@H](O)C/C1=C/C=C1\CCC[C@]2(C)[C@@H]([C@H](C)CCCC(C)(C)O)CC[C@@H]12.O [CALCIFEDIOL]	HH: Evidence of human hepatotoxicity
CC(C)(CO)[C@@H](O)C(=O)NCCC(=O)[O-].CC(C)(CO)[C@@H](O)C(=O)NCCC(=O)[O-].[Ca+2] [CALCIUM PANTOTHENATE]	NE: No evidence of hepatotoxicity in any species
C[C@@H]1NC(=O)[C@@H](N)CNC(=O)[C@H](C2CCNC(=N)N2)NC(=O)/C(=C/NC(N)=O)NC(=O)[C@H](CNC(=O)CC(N)CCCN)NC1=O.N=C1NCCC([C@@H]2NC(=O)/C(=C/NC(N)=O)NC(=O)[C@H](CNC(=O)CC(N)CCCN)NC(=O)[C@H](CO)NC(=O)[C@@H](N)CNC2=O)N1.O=S(=O)(O)O.O=S(=O)(O)O (stereo partly drawn) [CAPREOMYCIN SULFATE] (H-[Dap]S[Dap](ξβ3hOrn)[ΔAla(Z-3-ureido)][X1]; lactam 1-C)	NE: No evidence of hepatotoxicity in any species
COc1cc(CNC(=O)CCCC/C=C/C(C)C)ccc1O [CAPSAICIN]	NE: No evidence of hepatotoxicity in any species
C[C@H](CS)C(=O)N1CCC[C@H]1C(=O)O [CAPTOPRIL]	HH: Evidence of human hepatotoxicity
NC(=O)N1c2ccccc2C=Cc2ccccc21 [CARBAMAZEPINE]	HH: Evidence of human hepatotoxicity
COC(=O)Nc1nc2ccccc2[nH]1 [CARBENDAZIM]	AH: Evidence for animal hepatotoxicity but not tested in humans
